According to patent publication US11052099B2, “Use of cimicifugae rhizoma triterpenoid saponin extract, actein, and deoxyactein” (BEIJING DITAN HOSPITAL, CAPITAL MEDICAL UNIVERSITY, priority 2017, dated 2021):

Assays:
[1] = test system: ConA hepatitis mouse model; test: Serum ALT and AST in ConA hepatitis mouse model; assay type: in vivo, C57BL/6 mice; conditions: serum 10 hours after ConA 15 mg/kg i.v.; gavage, extract 15 mg/kg, actein/deoxyactein 5 mg/kg; MEAN ± SEM
Description: The test materials and animals were the same as those in Experimental Example 1.
(§1) Grouping: C57BL/6 mice, male, 18-20 g, after 1 day of adaptive breeding, randomly divided into 5 groups: normal control group, ConA model group, triterpenoid saponin group, actein group and deoxyactein group.
(§2) Model preparation and drug administration: except the normal control group, mice were injected intravenously at a dose of ConA 15 mg/kg. The dosage of each group was the same as that of Experimental Example 1.
(1) The effects of drug administration in each group on serum ALT and AST of ConA mice were measured. Eight mice in each group were sacrificed under anesthesia 10 hours after ConA injection. Peripheral blood was taken, and serum was separated to detect ALT and AST.

[2] = test system: CD45+CD3+NK1.1+ NKT cells; test: IFN-γ expression in NKT cells; assay type: cell-based, C57BL/6 mice; conditions: bone marrow cells; actein 62.5 ng/mL, deoxyactein 250 ng/mL; PMA + ionomycin 5 h; flow cytometry; PMA + ionomycin group 7.1 ± 0.7
Text: Test material: same as Experimental Example 9.
Animal: C57BL/6 mice, purchased from Beijing Huafukang Biotechnology Co., Ltd
Bone marrow single cell suspension preparation: same as Experimental Example 9.
Drug treatment and intracellular staining after NKT cell induction activation: same as Experimental Example 9. Flow cytometry was used to detect the percentage of positive cells expressing IFN-γ in CD45^+CD3^+NK1.1^+ NKT cells.

[3] = test system: mouse bone marrow-derived macrophages (BMDM); test: IL-12 and TNF-α secretion by LPS-stimulated macrophages (BMDM); assay type: cell-based, C57BL/6 mice; conditions: ELISA
Text: Test materials: LPS was purchased from Sigma; actein and deoxyactein were purchased from American ChromaDex; FBS was purchased from American PAA; DMEM high glucose medium; macrophage colony-stimulating factor (M-CSF) was purchased from PeproTech company; ELISA kit was purchased from BD company of the United States.
(§3) Animal: C57BL/6 mice, purchased from Beijing Huafukang Biotechnology Co., Ltd.
Isolation and culture of mouse bone marrow-derived macrophages (BMDM): after anesthesia of C57BL/6 mice, the mouses 2 pairs of femur and tibia were aseptically separated, and the bone marrow cells were flushed into a sterile flow tube using a 2 mL syringe with sterile PBS. Repeatedly pipetted into a bone marrow single cell suspension. After centrifugation, bone marrow cells were harvested, and 10 mL of complete medium containing 10% FBS, 1% glutamine, 1% double antibiotics (anti-penicillin, anti-streptomycin), and 10 ng/mL M-CSF were added to […] cell culture dish to culture at 37° C. After 4 days, the above fresh medium was changed, and macrophages with large volume, adherent growth, and mature differentiation were observed under the microscope on the 7th day. The cells were scraped off with a cell scraper, and repeatedly blown and mixed to form a single cell suspension, and then seeded in a 96-well plate at 1×10^5 cells/well.
BMDM cells induced activation and drug treatment: BMDM cells were treated with different doses of actein and deoxyactein, and 100 ng/mL LPS was given to stimulate cells 1 h later to simulate the activation of macrophages by bacterial infection. The cell supernatant was collected 4 hours later, and cytokine secretion was detected by ELISA.

[4] = test system: ConA hepatitis mouse model; test: Survival rate of ConA hepatitis mouse model; assay type: in vivo, C57BL/6 mice; conditions: ConA 25 mg/kg i.v.; 96-hour observation; gavage, extract 15 mg/kg, actein and deoxyactein 5 mg/kg; model group 10%
Description: Test materials: ConA was purchased from Sigma; actein and deoxyactein were purchased from ChromaDex, USA.
as §3
Grouping: 40 C57BL/6 mice, male, 18-20 g, after 1 day of adaptive breeding, mice were randomly divided into 4 groups of 10 animals in each group: ConA model group, triterpenoid saponin group, actein group, and deoxyactein group.
Model preparation and drug administration: weighed 150 mg of ConA powder, dissolved it in 40 mL of sterile PBS, left it at room temperature for 1 to 2 hours, and continued to gently shake intermittently to mix well. Low temperature ultrasound was used to improve dissolution (no more than 5 min each time) and avoided excessive foaming. After it was fully dissolved, the volume was adjusted to 50 mL to a concentration of 3 mg/mL and filtered the solution under pressure with a 0.45 μm filter. Mice were given a single intravenous injection at 25 mg/kg, with 100 μL per mouse. Took 4 mg of actein and deoxyactein, added 10 ml of sterile double-distilled water to dissolve to a concentration of 0.4 mg/mL. […]

[5] = test system: serum cytokines TNF-α, IL-12, IL-6, MCP-1, IFN-γ; test: Serum inflammatory cytokine secretion in ConA mouse model; assay type: in vivo, C57BL/6 mice; conditions: MEAN ± SEM; for IL-6 / IL-12 / MCP-1 / TNF-α: serum 3 hours after ConA injection; for IFN-γ: serum 10 hours after ConA injection
Description: as §1, §2
(3) The effect of each group of drugs on serum cytokine secretion of ConA mice was examined. Six mice in each group. Peripheral blood was collected 3 hours after ConA injection and serum was separated to detect the secretion of cytokines TNF-α, IL-12, IL-6 and MCP-1. Serum was separated 10 hours after ConA injection to detect cell factor IFN-γ secretion.

CD45+CD3-NK1.1+ NK cells = test: IFN-γ expression in NK cells; assay type: cell-based, C57BL/6 mice; conditions: bone marrow cells; actein 62.5 ng/mL, deoxyactein 250 ng/mL; PMA + ionomycin 5 h; flow cytometry; PMA + ionomycin group 42.1 ± 2.7
Description: Test materials: CD45-PE, CD3-FITC, NK1.1-APC antibody, Intracellular Fixation & Permeabilization Buffer Set, and Cell Stimulation Cocktail were purchased from eBioscience.
as §3
Bone marrow single cell suspension preparation: after anesthesia of C57BL/6 mice, the 2 pairs of femur and tibia of the mouse were separated aseptically, the sterile bone marrow cells were pipetted into a sterile flow tube with a 2 mL syringe and sterile PBS to obtain bone marrow single cell suspension. After centrifugation, bone marrow cells were harvested, and 1.5 mL of complete medium containing 10% FBS, 1% glutamine, and 1% double antibiotics (anti-penicillin, anti-streptomycin) were added.
Intracellular staining after drug administration and NK cell induction activation: cells were treated with actein of intermediate concentration of 62.5 ng/mL and deoxyactein at a concentration of 250 ng/mL, and the cells were stimulated with Cell Stimulation Cocktail (containing PMA, ionomycin and protein transport inhibitors) for 5 h. Surface staining was performed with CD45-PE, CD3-FITC, NK1.1-APC antibodies, intracellular staining was performed with […] antibodies, and the percentage of positive cells expressing IFN-γ in CD45^+CD3^−NK1.1^+ NK cells was detected by flow cytometry.

[6] = test system: ConA hepatitis mouse model; test: Liver pathological damage in ConA hepatitis mouse model (HE staining); assay type: in vivo, C57BL/6 mice; conditions: liver 10 hours after ConA 15 mg/kg; compared with the ConA group
Description: as §1, §2
(2) The effects of drug administration in each group on liver pathological damage in ConA mice were examined. Three mice in each group were sacrificed under anesthesia 10 hours after ConA injection. The left lobe of the liver was taken, cut into a size of about 5 mm3, and placed in 10% formalin solution, and dehydrated, transparently impregnated with wax, embedded, sliced, and spread, observed after staining;

CD3+CD8+ T cells = test: IFN-γ expression in CD8+ T lymphocytes; assay type: cell-based, C57BL/6 mice; conditions: spleen cells; actein 62.5 ng/mL, deoxyactein 250 ng/mL; PMA + ionomycin 5 h; PMA + ionomycin group 14.5 ± 1.0
Description: (§4) Test materials: CD3-PE antibodies were purchased from BD Company in the United States, and CD4-FITC and CD8-PerCP antibodies were purchased from eBioscience Company; the remaining required reagents were the same as those in Experimental Example 9.
as §3
(§5) Preparation of spleen single cell suspension: after anesthesia of C57BL/6 mice, isolated the spleen of the mouse, placed the spleen in a sterile petri dish with 4 mL of PBEB added, grinded the spleen with a glass frosted surface, and filtered with a sterile 400 mesh filter. The spleen cells were placed in a flow tube, and the supernatant was discarded after centrifugation. After adding 2 mL of RBC Lysis Buffer to lyse at room temperature for 15 minutes, the supernatant was discarded by centrifugation to harvest the spleen cells. Then added 1.5 mL of complete medium containing 10% FBS, 1% glutamine, and 1% double antibiotics (anti-penicillin, anti-streptomycin), and mixed well by repeated pipetting.
(§6) Drug treatment and intracellular staining after T cell induction activation: cells were treated with 62.5 ng/mL actein and 250 ng/mL deoxyactein in a medium concentration, and Cell Stimulation Cocktail (containing PMA, ionomycin and protein transport inhibitor) was added to stimulate the cells for 5 h. […]

CD3+CD4+ T cells = test: IFN-γ expression in CD4+ T lymphocytes; assay type: cell-based, C57BL/6 mice; conditions: spleen cells; actein 62.5 ng/mL, deoxyactein 250 ng/mL; PMA + ionomycin 5 h; PMA + ionomycin group 3.8 ± 0.6
Description: as §4, §3, §5, §6

[7] = 2.5 ng/mL, LPS 100 ng/mL, 4 hours
[8] = 12.5 ng/mL, LPS 100 ng/mL, 4 hours
[9] = 62.5 ng/mL, LPS 100 ng/mL, 4 hours
[10] = 312.5 ng/mL, LPS 100 ng/mL, 4 hours
[11] = 25 ng/mL, LPS 100 ng/mL, 4 hours
[12] = 50 ng/mL, LPS 100 ng/mL, 4 hours
[13] = 125 ng/mL, LPS 100 ng/mL, 4 hours
[14] = 250 ng/mL, LPS 100 ng/mL, 4 hours
[15] = 500 ng/mL, LPS 100 ng/mL, 4 hours

| Compound | ALT [1] [U/L] | AST [1] [U/L] | IFN-γ+ [2] [%] | survival rate [4] [%] | IL-6 [5] [pg/mL] | IL-12 [5] [pg/mL] | MCP-1 [5] [pg/mL] | TNF-α [5] [pg/mL] | IFN-γ [5] [pg/mL] | IFN-γ+ (CD45+CD3-NK1.1+ NK cells) [%] | liver pathological damage (HE staining, FIG. 2) [6] | IFN-γ+ (%), CD8+T cell (CD3+CD8+ T cells) [%] | IFN-γ+ (%), CD4+T cell (CD3+CD4+ T cells) [%] | also measured |
| --- | --- | --- | --- | --- | --- | --- | --- | --- | --- | --- | --- | --- | --- | --- |
| CC(=O)O[C@@H]1C[C@@]23C[C@@]24CC[C@H](O[C@@H]2OC[C@@H](O)[C@H](O)[C@H]2O)C(C)(C)[C@@H]4CC[C@H]3[C@]2(C)C[C@@H]3O[C@]4(C[C@@H](C)[C@@H]3[C@@]12C)O[C@H](O)[C@@]1(C)O[C@@H]41 [Actein, actein] | 39.8 ± 11.1 | 212 ± 33 | 3.5 ± 0.6 | 60 | 792 ± 48 | 22 ± 1.9 | 1832 ± 209.7 | 173 ± 18.2 | 116.2 ± 34.8 | 33.0 ± 2.2 | large pieces of hepatocyte necrosis was significantly reduced and leukocyte infiltration was reduced | 14.3 ± 0.7 | 3.1 ± 0.6 | IL-12 ([3]; 0.5 ng/mL, LPS 100 ng/mL 1 h later, supernatant after 4 hours, LPS group 226.6 ± 26.6): 194.5 ± 22.3 pg/mL; TNF-α ([3]; 0.5 ng/mL, LPS 100 ng/mL 1 h later, supernatant after 4 hours, LPS group 2891 ± 57): 2555 ± 62.3 pg/mL; IL-12 [3, 7]: 136.3 ± 22.8 pg/mL; TNF-α [3, 7]: 2483 ± 77.3 pg/mL; IL-12 [3, 8]: 88.5 ± 10.6 pg/mL; TNF-α [3, 8]: 2327 ± 77.3 pg/mL; IL-12 [3, 9]: 48.2 ± 21.4 pg/mL; TNF-α [3, 9]: 2056 ± 49.2 pg/mL; IL-12 [3, 10]: 8 ± 0.8 pg/mL; TNF-α [3, 10]: 2062 ± 49 pg/mL |
| CC(=O)O[C@@H]1C[C@@]23C[C@@]24CC[C@H](O[C@@H]2OC[C@@H](O)[C@H](O)[C@H]2O)C(C)(C)[C@@H]4CC[C@H]3[C@]2(C)C[C@@H]3O[C@]4(C[C@@H](C)[C@@H]3[C@@]12C)OC[C@@]1(C)O[C@@H]41 [Deoxyactein, deoxyactein] | 144.4 ± 68.5 | 390.8 ± 98.2 | 2.2 ± 0.4 | 40 | 1406 ± 134.1 | 190.5 ± 22.5 | 4741 ± 665.7 | 394.4 ± 41.8 | 245.3 ± 56 | 29.5 ± 3.5 | large pieces of hepatocyte necrosis was significantly reduced and leukocyte infiltration was reduced | 12.1 ± 1.3 | 2.0 ± 0.7 | IL-12 [3, 11]: 244 ± 2.8 pg/mL; TNF-α [3, 11]: 2529 ± 121.3 pg/mL; IL-12 [3, 12]: 177.8 ± 12.5 pg/mL; TNF-α [3, 12]: 2321 ± 97.4 pg/mL; IL-12 [3, 13]: 142.3 ± 6.8 pg/mL; TNF-α [3, 13]: 2440 ± 84.8 pg/mL; IL-12 [3, 14]: 88.1 ± 22.3 pg/mL; TNF-α [3, 14]: 2305 ± 76.8 pg/mL; IL-12 [3, 15]: 42.2 ± 23.7 pg/mL; TNF-α [3, 15]: 2077 ± 43.8 pg/mL |
